Reference: the supplement of paper PMC10307832

Key:
Experiment in all cases: relative viability (nuclei count vs DMSO), 5 days (fraction); higher = more cells survive
Kobe2602 + Navitoclax = compound: C1=CC(=CC=C1NC(=S)NNC2=C(C=C(C=C2[N+](=O)[O-])C(F)(F)F)[N+](=O)[O-])F [Kobe2602] + CC1(C)CCC(c2ccc(Cl)cc2)=C(CN2CCN(c3ccc(C(=O)NS(=O)(=O)c4ccc(N[C@H](CCN5CCOCC5)CSc5ccccc5)c(S(=O)(=O)C(F)(F)F)c4)cc3)CC2)C1 [Navitoclax] (partner 0.5 µM)
Method in brief: (§1)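 Relative viability is defined as nuclei in treated wells over nuclei in vehicle wells. Duplicate plates were run and medians reported. Lung cancer cell lines in 1536-well plates were dosed by pin tool one day after seeding, with one drug or with a fixed anchor-drug dose plus five library-drug doses (not always all listed) in √10 steps, and nuclei were counted after 5 days.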

[1] = compound: COc1cc2nccc(Oc3ccc(NC(=O)C4(C(=O)Nc5ccc(F)cc5)CC4)cc3)c2cc1OC [Cabozantinib] + CC(C)C[C@H](NC(=O)[C@H](Cc1ccccc1)NC(=O)c1cnccn1)B(O)O [Bortezomib] (partner 0.002 µM)
Method in brief: as §1

[2] = compound: COc1cc2nccc(Oc3ccc(NC(=O)C4(C(=O)Nc5ccc(F)cc5)CC4)cc3)c2cc1OC [Cabozantinib] + N=C(N)NC(=N)NCCc1ccccc1 [Phenformin] (partner 250 µM)
Method in brief: as §1

Zosuquidar + Tozasertib = compound: O[C@@H](COc1cccc2ncccc12)CN1CCN([C@@H]2c3ccccc3[C@@H]3[C@H](c4ccccc42)C3(F)F)CC1 [Zosuquidar] + Cc1cc(Nc2cc(N3CCN(C)CC3)nc(Sc3ccc(NC(=O)C4CC4)cc3)n2)n[nH]1 [Tozasertib] (partner 0.1 µM)
Method in brief: as §1

## UMC-11
Kobe2602 + Navitoclax; first compound 0.2 µM
  relative viability: 0.322
Kobe2602 + Navitoclax; first compound 0.6325 µM
  relative viability: 0.327
Kobe2602 + Navitoclax; first compound 2 µM
  relative viability: 0.292
Kobe2602 + Navitoclax; first compound 6.325 µM
  relative viability: 0.312
Kobe2602 + Navitoclax; first compound 20 µM
  relative viability: 0.316
[1]; first compound 0.02 µM
  relative viability: 0.669
[1]; first compound 0.06325 µM
  relative viability: 0.921
[1]; first compound 0.2 µM
  relative viability: 0.709
[1]; first compound 0.6325 µM
  relative viability: 0.649
[1]; first compound 2 µM
  relative viability: 0.815
[2]; first compound 0.02 µM
  relative viability: 0.309
[2]; first compound 0.06325 µM
  relative viability: 0.35
[2]; first compound 0.2 µM
  relative viability: 0.335
[2]; first compound 0.6325 µM
  relative viability: 0.32
[2]; first compound 2 µM
  relative viability: 0.331
Zosuquidar + Tozasertib; first compound 0.01 µM
  relative viability: 0.207
Zosuquidar + Tozasertib; first compound 0.03162 µM
  relative viability: 0.194
Zosuquidar + Tozasertib; first compound 0.1 µM
  relative viability: 0.201
Zosuquidar + Tozasertib; first compound 0.3162 µM
  relative viability: 0.208
Zosuquidar + Tozasertib; first compound 1 µM
  relative viability: 0.194
